According to patent publication US20260126382A1, “INTELLIGENT NIR II PHOTOTHERMAL AND COLORIMETRIC SENSING TECHNOLOGY” (Nanyang Technological University, priority 2022, published 2026):

Experiments:
myrosinase (Myr) [1] = assay: Effect of interfering substances (metal ions, small molecules, amino acids, EDTA) on the Myr test system; type: biochemical; details: interfering substances 1 mM, FIG. 17C
Experimental: (§1) For Myr detection, Sin (2.5 mM, 30 μL) and GOx (5 mg/mL, 10 μL, according to previous literature (Jiang, C. et al., RSC Adv. 2017, 7, 44463-44469)) were mixed with different concentrations of Myr first, and reacted at 37° C. for 30 min to generate H2O2. Then, an acetate buffer containing TMB and AuNPs was added into the aforementioned solution, incubated at 45° C. for 25 min, and cooled to room temperature. Afterward, the solution was used for the analysis of Myr enzyme activity.
For the anti-interference experiments discussed below, Sin (2.5 mM, 30 μL) and GOx (5 mg/mL, 10 μL) were mixed with different interfering substances first and reacted at 37° C. for 30 min. Then, acetate buffer containing TMB and AuNPs were added into the above solution, incubated at 45° C. for 25 min, and cooled to room temperature, and afterwards, the solution was used for photothermal and colorimetric analysis.

myrosinase (Myr) [2] = assay: Effect of Sin concentration on the Sin+Myr+GOx+TMB+AuNPs system; type: biochemical; details: Myr 0.5 mg/mL, GOx 0.5 mg/mL, TMB 1.5 mM, AuNPs 0.45 nM
Experimental: as §1
Before testing different Myr concentrations, it is necessary to determine the maximum Sin concentration that can be applied. FIG. 16 illustrates that when the concentration of Sin exceeds 0.75 mM, the working efficiency decreases and the blue color becomes faint because excess Sin binds to the active regulatory sites of Myr, thereby inhibiting the activity of Myr to hydrolyze Sin. As a result, 0.75 mM was selected as the maximum Sin concentration for detecting commercial Myr at varying concentrations and constructing a standard curve. As shown in FIGS. 17A-B and 18, when Sin was present at a concentration of 0.75 mM, Myr was detectable in the range of 0-345 mU/mL, and its linear detection range in the absorption spectrum was 0 to 172.5 mU/mL with an LOD of 2.96 mU/mL.

[3] = natural enzyme, from literature; cited from earlier work
[4] = Peroxidase-like (POD-like) activity in the TMB+H2O2 system, Abs1064 nm; type: biochemical; details: TMB+H2O2 system with HRP, FIG. 11

Compound	inhibitory effect on Myr activity (myrosinase (Myr) [1])	also measured
[Cu+2] [Cu^2+]	strongest inhibitory effect	–
N[C@@H](CS)C(=O)O [Cys]	inhibit Myr activity	–
N[C@@H](CCC(=O)N[C@@H](CS)C(=O)NCC(=O)O)C(=O)O [GSH]	inhibit Myr activity	–
C=CC/C(=N/OS(=O)(=O)[O-])S[C@@H]1OC(CO)[C@@H](O)C(O)C1O.[K+] (stereo partly shown) [Sin, Sinigrin]	–	Sin concentration above which working efficiency decreases (excess Sin inhibiting the activity of Myr) (myrosinase (Myr) [2]): exceeds 0.75 mM
O=C1O[C@H]([C@@H](O)CO)C(O)=C1O [Vc, Vitamin C]	inhibit Myr activity	–
horseradish peroxidase [HRP]	–	temperature beyond which activity is lost [3]: exceeds 50 °C; slope of Abs1064 nm vs. c(HRP) [4]: 0.04644 nM⁻¹
